Measurements reported in US8937050B2, “Methods and compositions for treatment of autism” (The Johns Hopkins University, priority 2011, dated 2015).

Assays:
XALD fibroblasts = experiment: Inhibition studies: ATP5B immunofluorescence of drug-induced mitochondrial biogenesis; assay type: cell-based, human; details: four days; FIG. 2A
Procedure: Performed as described in Watkins et al., 1995 using 4% formaldehyde, 1% Triton X-100, primary antibody anti-ATP5B (Millipore, Billerica, Mass.) or anti-ABCD3 (Invitrogen, Carlsbad, Calif.), and secondary antibody sheep anti-mouse IgG FITC-conjugated (Santa Cruz Biotechnology, Santa Cruz, Calif.) or goat anti-rabbit IgG rhodamine-conjugated (Jackson ImmunoResearch, West Grove, Pa.).
Antimycin A (10 ng/mL), LY294002, PD98059, RO-31-8425, SB203580, SP600125, and L-NAME were obtained from Sigma. Compound C was from EMD Biosciences (Darmstadt, Germany). Human fibroblasts were treated with each inhibitor. Then, 45-75 min later, either 4PBA, HU, TSA, or SFN was added. Cells were stained four to six days after treatment with one of the small molecules. As a control for inhibitors dissolved in DMSO, fibroblasts were treated with an equivalent amount of DMSO in the absence of inhibitor. […]
In FIGS. 2A-B, the JNK inhibitor SP600125 (10 μM+inh) was utilized. […] XALD fibroblasts were treated with each drug for four days with or without SP600125. (400× magnification). […] Normal human fibroblasts were treated with each of the small four molecules with or without SP600125 for six days. Quantitative in-cell western analyses were performed using anti-ATP5B.

normal human fibroblasts = experiment: Quantitative in-cell western analysis with anti-ATP5B; assay type: cell-based; details: six days, FIG. 2B
Procedure: The immunostaining of primary human fibroblasts with anti-ATP5B, DRAQ5 (Cell Signaling Technologies, Danvers, Mass.; a cellular DNA stain to normalize cell number), and secondary antibody IRDye 800CW donkey anti-mouse IgG (Li-cor Biosciences, Lincoln, Nebr.) was identical to the indirect immunofluorescence procedure described above and performed in duplicate. Imaging and quantification were performed using the Odyssey Imager (L1-cor Biosciences).
In FIGS. 2A-B, the JNK inhibitor SP600125 (10 μM+inh) was utilized. […] Normal human fibroblasts were treated with each of the small four molecules with or without SP600125 for six days. Quantitative in-cell western analyses were performed using anti-ATP5B.

JUN, PGC1α and PGC1β = experiment: RT-PCR of JUN and mitochondrial transcription factors; assay type: cell-based, human; details: FIG. 2E; for PGC1α and PGC1β transcript levels (abundance of mitochondrial transcription factors): 48 hours or more of treatment; for JUN transcript levels: normal human fibroblasts, six hours of treatment
Procedure: (§1) Following the manufacturer's protocols, DNase I-treated cDNA was synthesized using Superscript III or Thermoscript reverse transcriptase (Invitrogen). PCR reactions were performed in duplicate on the Roche Lightcycler 3.5 (Basel, Switzerland) or the Bio-Rad iCycler (Hercules, Calif.) using Quantitech SYBR green PCR mix (Qiagen, Valencia, Calif.). GeNorm software calculated a normalization factor for each sample using the relative amounts of at least two of the following reference genes, β2-microglobulin, glyceraldehyde-6-phosphate, actin, and/or eukaryotic elongation factor 1A (Vandesompele et al., 2002).
The relative gene expression for each treatment compared to untreated normal human fibroblasts was calculated and the fold change (drug treated/untreated) is shown.

HSP70 and HSP90 = experiment: Immunoblot analyses of HSP expression; assay type: cell-based, human; details: for heat shock response (HSR): normal human fibroblasts
Procedure: Cell lysates were collected in mammalian protein extraction reagent (m-PER; Thermo Scientific, Rockford, Ill.) plus 1×protease inhibitor (Sigma-Aldrich) and 1×Halt phosphatase inhibitor (Thermo Scientific). Denatured SDS-PAGE and immunoblot analyses were performed using the following antibodies: phosphorylated JNK and β-actin from Santa Cruz Biotechnology, HSP70, HSP90, BIP, phosphorylated eIF2α, and XBP1 from Cell Signaling, APG8 (Abgent, San Diego, Calif.), and SOD2 (Stressgen, Ann Arbor, Mich.). Quantitation was performed using a Fuji Intelligent Dark box II, FUJI LAS-1000 Lite software and Image Gauge v4.22 software (Tokyo, Japan).
(§2) Expression of key components of the HSR, UPR, the autophagic response, and the antioxidant response were monitored at the transcriptional, translational, and/or post-translational level. […] Due to the transient nature of these responses, several components of each pathway were monitored at various time points within a 24 hour treatment. At least two normal human fibroblast lines were tested in three or more independent experiments. […] The average of the maximal increase in protein expression within a 24 hour time frame was also compared to the untreated sample. Activation of each pathway was assessed by an increase in one or more components of each pathway.
Normal human fibroblasts were treated at various time points within 24 hours and the average of the maximum protein expression of HSP70 (70 kDa) and HSP90 (90 kDa) is plotted as in FIG. 2F. Actin (43 kDa) was used as a loading control. (UT=untreated cells; * statistical significance (p≦0.05); Bars=SEM for n≧3 independent experiments).

ATF4, CHOP, and BIP = experiment: RT-PCR of unfolded protein response (UPR) genes; assay type: cell-based, human; details: for BIP expression at the transcriptional level: normal human fibroblasts, FIG. 4A
Procedure: Following the manufacturer's protocols, DNase I-treated cDNA was synthesized using Superscript III or Thermoscript reverse transcriptase (Invitrogen). PCR reactions were performed in duplicate on the Roche Lightcycler 3.5 (Basel, Switzerland) or the Bio-Rad iCycler (Hercules, Calif.) using Quantitech SYBR green PCR mix (Qiagen, Valencia, Calif.). GeNorm software calculated a normalization factor for each sample using the relative amounts of at least two of the following reference genes, β2-microglobulin, […], actin, and/or eukaryotic elongation factor 1A (Vandesompele et al., 2002). Primers for the various experiments described herein are listed below.
Expression of key components of the HSR, UPR, the autophagic response, and the antioxidant response were monitored at the transcriptional, translational, and/or post-translational level. These responses are known to be transiently activated in response to various cellular stressors. The degree of induction of each component can vary depending on the metabolic state of the cell (e.g., confluency, cell passage number) (Kultz 2003; Lallemand et al., 1998; Westerheide et al., 2009). Due to the transient nature of these responses, several components of each pathway were monitored at various time points within a 24 hour treatment. At least two normal human fibroblast lines were tested in three or more independent experiments. […] The average of the maximal increase in protein expression within a 24 hour time frame was also compared to the untreated sample. Activation of each pathway was assessed by an increase in one or more components of each pathway.
UPR markers evaluated included the central UPR regulator glucose regulated protein 78 (BIP) and other components that are stimulated after the activation of the three ER transmembrane receptors: PKR-like ER kinase (PERK), inositol requiring 1 (IRE1), and activating transcription factor 6 (Fedoroff 2006). […] 2 alpha (eIF2a) is phosphorylated by PERK, attenuates general translation, and induces activating transcription factor 4 (ATF4). CHOP promotes reactivation of PERK. XBP1 mRNA is non-conventionally spliced by the endonuclease activity of IRE1 upon UPR activation.
Normal human fibroblasts were treated with drugs as indicated. The expression of the UPR genes ATF4, CHOP, and BIP was measured as described in FIG. 2E. […] Normal human fibroblasts were treated at various time points and the average of the maximum protein expression of BIP (78 kDa) and phosphorylated eIF2α (38 kDa) is plotted as in FIG. 2F. Actin (43 kDa) was used as a loading control and is the same blot as FIG. 2F. UT denotes untreated cells. M denotes marker lane. […] Normal human fibroblasts were treated. The expression of the unspliced form (XBP1-us; 33 kDa) and the activated and spliced form of XBP1 (XBP1-s; 54 kDa) was analyzed by immunoblotting. BP1-s is a larger protein than XBP1-us due to non-canonical mRNA splicing which results in a larger carboxy-terminal domain. […] The average of the maximum expression of XBP1-s (within 24 hrs.) is plotted as in FIG. 2F. Actin was used as a loading control.

BCN1 and ATG5 = experiment: RT-PCR of autophagy genes; assay type: cell-based, human; details: for ATG5 mRNA levels / BCN1 mRNA levels: normal human fibroblasts, FIG. 5A
Procedure: as §1, §2
To monitor activation of autophagy, the expression of three classical autophagy markers was examined. The three classical autophagy markers are: (i) beclin-1 (BCN1), (ii) autophagy protein 5 (ATG5), and (iii) microtubule-associated protein 1 light chain 3 (LC3 or APG8). […] Normal human fibroblasts were treated as indicated. The expression of BCN1 and ATG5 were measured as described in FIG. 2E. After TSA treatment, the levels of ATG5 mRNA were measured in two independent experiments in duplicate.

[1] = tested on: spinal muscular atrophy fibroblasts; experiment: Mitotracker Red CMXROS staining; assay type: cell-based, human; details: 2.5 mM 4PBA, HU, 100 nM TSA or 2.5 mM SFN for 5 days; FIG. 7
Procedure: SMA type I (GM00232) fibroblasts were treated with 2.5 mM 4PBA, 300 mM HU, 100 nM TSA or 2.5 mM SFN for 5 days, live stained with 25 nM Mitotracker Red CMXROS (Invitrogen) in pre-warmed MEM media for 15 min at 37° C. in a CO2 incubator. Stained cells were washed with pre-warmed MEM, washed with PBS and excess PBS was removed. The cells were examined under the microscope at ×80.
Spinal muscular atrophy fibroblasts were treated with 2.5 mM 4PBA, 300 mM HU, 100 nM TSA or 2.5 mM SFN for 5 days (×80 magnification).

SIRT1 = SIRT1 protein expression in normal human fibroblasts; assay type: cell-based
Spinal Muscular Atrophy = details: Lunn et al., 2008; cited from earlier work

NC(=O)NO [HU, hydroxyurea]
mitochondrial biogenesis in XALD fibroblasts (XALD fibroblasts): increased | mitochondrial mass (ATP5B) compared to untreated cells (normal human fibroblasts): 1.8 fold | PGC1α and PGC1β transcript levels (abundance of mitochondrial transcription factors) (JUN, PGC1α and PGC1β): increased | JUN transcript levels (JUN, PGC1α and PGC1β): significantly increased | heat shock response (HSR) (HSP70 and HSP90): activated | BIP expression at the transcriptional level (ATF4, CHOP, and BIP): significantly increased | ATG5 mRNA levels (BCN1 and ATG5): increased | BCN1 mRNA levels (BCN1 and ATG5): not reproducibly changed | mitochondrial biogenesis (Mitotracker staining) [1]: induced | SIRT1 protein expression (SIRT1): no marked changes | Therapeutic Effect (Spinal Muscular Atrophy): increase percentage of full

CC(/C=C/C(=O)NO)=C\[C@@H](C)C(=O)c1ccc(N(C)C)cc1 [TSA, trichostatin A]
mitochondrial biogenesis in XALD fibroblasts (XALD fibroblasts): increased | mitochondrial mass (ATP5B) compared to untreated cells (normal human fibroblasts): 2.5 fold | PGC1α and PGC1β transcript levels (abundance of mitochondrial transcription factors) (JUN, PGC1α and PGC1β): increased | JUN transcript levels (JUN, PGC1α and PGC1β): significantly increased | heat shock response (HSR) (HSP70 and HSP90): activated | BIP expression at the transcriptional level (ATF4, CHOP, and BIP): significantly increased | ATG5 mRNA levels (BCN1 and ATG5): increased | BCN1 mRNA levels (BCN1 and ATG5): increased | mitochondrial biogenesis (Mitotracker staining) [1]: induced | SIRT1 protein expression (SIRT1): no marked changes | Therapeutic Effect (Spinal Muscular Atrophy): increase percentage of full

C[S@@+]([O-])CCCCN=C=S [SFN, 1-isothiocyanato-4R-(methylsulfinyl)butane]
mitochondrial biogenesis in XALD fibroblasts (XALD fibroblasts): increased | mitochondrial mass (ATP5B) compared to untreated cells (normal human fibroblasts): 2.2 fold | PGC1α and PGC1β transcript levels (abundance of mitochondrial transcription factors) (JUN, PGC1α and PGC1β): increased | JUN transcript levels (JUN, PGC1α and PGC1β): not consistently changed | total HSP70 protein levels increase (HSP70 and HSP90; in vitro sulforaphane studies): 3-4 fold | total HSP90 protein levels increase (HSP70 and HSP90; in vitro sulforaphane studies): 3-4 fold | heat shock response (HSR) (HSP70 and HSP90): activated | ATF4 mRNA expression increase (ATF4, CHOP, and BIP; in vitro sulforaphane studies): 4-5 fold | BIP increase at the transcriptional level (ATF4, CHOP, and BIP; in vitro sulforaphane studies): 2-3 fold | CHOP mRNA expression increase (ATF4, CHOP, and BIP; in vitro sulforaphane studies): 4-5 fold | BIP expression at the transcriptional level (ATF4, CHOP, and BIP): significantly increased | ATG5 mRNA levels increase (BCN1 and ATG5; in vitro sulforaphane studies): 3 fold | BCN1 mRNA levels increase (BCN1 and ATG5; in vitro sulforaphane studies): 5 fold | ATG5 mRNA levels (BCN1 and ATG5): increased | BCN1 mRNA levels (BCN1 and ATG5): increased | mitochondrial biogenesis (Mitotracker staining) [1]: induced | SIRT1 protein expression (SIRT1): no marked changes

4-phenylbutyrate [4PBA]
mitochondrial biogenesis in XALD fibroblasts (XALD fibroblasts): increased | mitochondrial mass (ATP5B) compared to untreated cells (normal human fibroblasts): 2.4 fold | PGC1α and PGC1β transcript levels (abundance of mitochondrial transcription factors) (JUN, PGC1α and PGC1β): increased | JUN transcript levels (JUN, PGC1α and PGC1β): significantly increased | heat shock response (HSR) (HSP70 and HSP90): activated | BIP expression at the transcriptional level (ATF4, CHOP, and BIP): significantly increased | ATG5 mRNA levels (BCN1 and ATG5): increased | BCN1 mRNA levels (BCN1 and ATG5): increased | mitochondrial biogenesis (Mitotracker staining) [1]: induced | SIRT1 protein expression (SIRT1): no marked changes | Therapeutic Effect (Spinal Muscular Atrophy): increase percentage of full
